Measurements published in patent publication US5039806A, “Novel pharmacologically active compound pyridyl methylsulfinyl benzimidazole” (AB Hassle, priority 1983, dated 1991).

test system: isolated rabbit gastric glands; assay: Inhibiting effect in vitro on acid secretion in isolated rabbit gastric glands (14C-aminopyrine accumulation); type: cell-based; details: Oryctolagus cuniculus, 1 h, logarithm of concentration (in M) giving 50% inhibition of aminopyrine accumulation; 5×10^-5 M histamine, 60 min, free base
Method: I. Inhibiting effect in vitro on acid secretion in isolated rabbit gastric glands
Isolated rabbit gastric glands were prepared as described by Berglindh et al., Acta physiol. scand. 1976. 96. 150-159. This method involves vascular perfusion of the rabbit stomach via the gastric arteries, scraping and scissor mincing of the separated gastric mucosa and collagenase (0.1%, Type I, Sigma Chemicals, St. Louis, MO. USA) digestion at 37° C. for 60-90 min. The glands are then harvested and filtered through nylon cloth to remove coarse fragments. The glands are thereafter incubated at 37° C. in a medium containing NaCl 132.4 mM, KCl 5.4 mM, […], NaH2 PO4 1.0 mM, MgSO4 1.2 mM, CaCl2 1.0 mM, glucose 10 mM, and 1 mg/ml rabbit albumine, pH 7.4.
The acid secretion in the isolated gland preparation was recorded by measuring the uptake of ^14 C-labelled aminopyrine into the glands as described by Berglindh et al., Acta physiol. scand. 1976. 97. 401-414. Accumulation of aminopyrine in the glands indicates gastric acid secretion within the glands. The standard medium contained 10^-6 M ^14 C-aminopyrine (Amersham, Great Britain). After the incubation period, the glands were centrifuged, the supernatant was removed and the glands dried, weighed and dissolved in Soluene -350 (Packard, IU. USA). Samples of the supernatant and glands were separately counted in a scintillation counter. The accumulation of ^14 C-labelled aminopyrine in the glands was calculated as detailed by Berglindh et al., Acta physiol. scand. 1976. 97. 403.
Glands were incubated for 60 min. in the presence of 5×10^-5 M histamine and the test compound to be studied. The free base of the test compound was dissolved in methanol. The final concentration of methanol was 1% in the incubation medium, having no influence on the aminopyrine accumulation ratio.

IC50 [µM] | Structure (SMILES)
6.31 | CCOc1c(C)cnc(C[S+]([O-])c2nc3c(C)c(C#N)c(C)cc3[nH]2)c1C (centres unmarked) [Example 153]
1 | COc1c(C)cnc(C[S+]([O-])c2nc3cc4c(cc3[nH]2)OC2(CCCCC2)O4)c1C (centres unmarked) [Example 106]
0.631 | Cc1ccnc(C[S+]([O-])c2nc3c(C)c(C)c(C)cc3[nH]2)c1C (centres unmarked) [Example 145]
1.26 | C=CCOc1c(C)cnc(C[S+]([O-])c2nc3c(C)cc(C)cc3[nH]2)c1C (centres unmarked) [Example 41]
0.398 | COc1c(C)cnc(C[S+]([O-])c2nc3cc(Oc4ccccc4)ccc3[nH]2)c1C (centres unmarked) [Example 118]
0.316 | COc1c(C)cnc(C[S+]([O-])c2nc3c(C)c(C)c(C)c(C)c3[nH]2)c1C (centres unmarked) [Example 12]
10 | COc1ccc2[nH]c([S+]([O-])Cc3cc4c(cn3)CCCC4)nc2c1 (centres unmarked) [Example 37]
1.26 | C=CCOc1c(C)cnc(C[S+]([O-])c2nc3c(C)ccc(C)c3[nH]2)c1C (centres unmarked) [Example 26]
0.501 | Cc1cnc(C[S+]([O-])c2nc3cc(C(F)(F)F)ccc3[nH]2)c(C)c1OCC1CCCO1 (centres unmarked) [Example 159]
1 | C=CCOc1c(C)cnc(C[S+]([O-])c2nc3cc(Br)ccc3[nH]2)c1C (centres unmarked) [Example 129]
1 | Cc1cnc(C[S+]([O-])c2nc3cc4c(cc3[nH]2)OCO4)c(C)c1C (centres unmarked) [Example 142]
0.1 | COc1c(C)cnc(C[S+]([O-])c2nc3cc(-c4ccccc4)ccc3[nH]2)c1C (centres unmarked) [Example 124]
39.8 | COc1c(C)cnc(C[S+]([O-])c2nc3cc(OCC#N)ccc3[nH]2)c1C (centres unmarked) [Example 43]
0.501 | COc1c(C)cnc(C[S+]([O-])c2nc3c4c(ccc3[nH]2)CCCC4)c1C (centres unmarked) [Example 87]
0.316 | COc1c(C)cnc(C[S+]([O-])c2nc3c(C)c(C)c(C)cc3[nH]2)c1C (centres unmarked) [Example 16]
0.251 | C=CCOc1c(C)cnc(C[S+]([O-])c2nc3cc(CC)ccc3[nH]2)c1C (centres unmarked) [Example 94]
10 | CCc1cc2[nH]c([S+]([O-])Cc3ncc(C)c(OC)c3C)nc2c(CC)c1C#N (centres unmarked) [Example 72]
0.501 | COc1c(C)cnc(C[S+]([O-])c2nc3cc(OCCc4ccccc4)ccc3[nH]2)c1C (centres unmarked) [Example 120]
0.794 | CCc1cnc(C[S+]([O-])c2nc3cc(C(=O)OC)c(C)cc3[nH]2)cc1OC (centres unmarked) [Example 143]

IC50 [µM] | Structure (SMILES)
1.26 | COCCOc1c(C)cc2[nH]c([S+]([O-])Cc3ncc(C)c(OC)c3C)nc2c1C (centres unmarked) [Example 58]
0.794 | COc1c(C)cnc(C[S+]([O-])c2nc3cc(C4CCCCC4)ccc3[nH]2)c1C (centres unmarked) [Example 45]
0.501 | Cc1ccnc(C[S+]([O-])c2nc3c(C)c(C)cc(C)c3[nH]2)c1C (centres unmarked) [Example 151]
0.2 | COc1c(C)cc2[nH]c([S+]([O-])Cc3nccc(C)c3C)nc2c1C (centres unmarked) [Example 1, 4,6-dimethyl-5-methoxy-2-[[(3,4-dimethyl-2-pyridinyl)methyl]sulfinyl]-1H-benzimidazole]
1.26 | C=CCOc1c(C)cnc(C[S+]([O-])c2nc3cc(C(C)(C)C)ccc3[nH]2)c1C (centres unmarked) [Example 102]
3.98 | COCCOc1c(C)cc2[nH]c([S+]([O-])Cc3cc(C)c(C)cn3)nc2c1C (centres unmarked) [Example 60]
2 | COCCc1ccc2[nH]c([S+]([O-])Cc3ncc(C)c(OC)c3C)nc2c1 (centres unmarked) [Example 104]
1.26 | CCCCCCCOc1c(C)cc2[nH]c([S+]([O-])Cc3ncc(C)c(OC)c3C)nc2c1C (centres unmarked) [Example 2, 4,6-dimethyl-5-heptyloxy-2-[[(4-methoxy-3,5-dimethyl-2-pyridinyl)methyl]sulfinyl]-1H-benzimidazole]
5.01 | COc1c(C)cnc(C[S+]([O-])c2nc3c(ccc4ccccc43)[nH]2)c1C (centres unmarked) [Example 83]
0.316 | CCc1c(C)cc2[nH]c([S+]([O-])Cc3ncc(C)c(OC)c3C)nc2c1C (centres unmarked) [Example 68]
0.316 | COc1c(C)cnc(C[S+]([O-])c2nc3c(C)c(OC)c(C)cc3[nH]2)c1C (centres unmarked) [Example 8, 4,6-dimethyl-5-methoxy-2-[[(4-methoxy-3,5-dimethyl-2-pyridinyl)methyl]sulfinyl]-1H-benzimidazole]
1.58 | COc1c(C)cnc(C[S+]([O-])c2nc3cc(OCCCOc4ccccc4)ccc3[nH]2)c1C (centres unmarked) [Example 91]
1.26 | CCc1c(C)cc2[nH]c([S+]([O-])Cc3nccc(OC)c3C)nc2c1C (centres unmarked) [Example 70]
1 | C=CCOc1c(C)cnc(C[S+]([O-])c2nc3c(C)c(C)ccc3[nH]2)c1C (centres unmarked) [Example 22]
1 | CCc1cnc(C[S+]([O-])c2nc3cc(C)c(C)cc3[nH]2)cc1OC (centres unmarked) [Example 77]
0.398 | Cc1cnc(C[S+]([O-])c2nc3c(C)c(C)c(C)cc3[nH]2)cc1C (centres unmarked) [Example 147]
1 | CCC(=O)c1c(C)cc2[nH]c([S+]([O-])Cc3ncc(C)c(OC)c3C)nc2c1C (centres unmarked) [Example 66]
0.631 | COc1c(C)cnc(C[S+]([O-])c2nc3c(C)c(OC)c(C)c(C)c3[nH]2)c1C (centres unmarked) [Example 74]
0.794 | COc1ccc2[nH]c([S+]([O-])Cc3ncc(C)c(OCCC(C)C)c3C)nc2c1 (centres unmarked) [Example 96]

IC50 [µM] | Structure (SMILES)
1 | C=CCOc1c(C)cnc(C[S+]([O-])c2nc3cc(C)c(C)cc3[nH]2)c1C (centres unmarked) [Example 24]
1.26 | C=CCOc1c(C)cnc(C[S+]([O-])c2nc3c(C)cccc3[nH]2)c1C (centres unmarked) [Example 28]
2.51 | CCc1cnc(C[S+]([O-])c2nc3cc(OC)ccc3[nH]2)cc1OC (centres unmarked) [Example 35]
10 | COc1c(C)cnc(C[S+]([O-])c2nc3cc(C(=O)N4CCCCC4C)ccc3[nH]2)c1C (centres unmarked) [Example 79]
2.51 | C=CCOc1c(C)cnc(C[S+]([O-])c2nc3cc(OC)ccc3[nH]2)c1C (centres unmarked) [Example 32]
1.26 | C=CCOc1c(C)cnc(C[S+]([O-])c2nc3cc(C)ccc3[nH]2)c1C (centres unmarked) [Example 30]
0.631 | Cc1cnc(C[S+]([O-])c2nc3c(C)c(C)c(C)cc3[nH]2)c(C)c1 (centres unmarked) [Example 149]
1.26 | C=CCOc1c(C)cnc(C[S+]([O-])c2nc3c(C)c(C)cc(C)c3[nH]2)c1C (centres unmarked) [Example 18]
1 | COc1c(C)cnc(C[S+]([O-])c2nc3c(C)c(C)cc(C)c3[nH]2)c1C (centres unmarked) [Example 20]
1.58 | CC(=O)c1c(C)cc2[nH]c([S+]([O-])Cc3ncc(C)cc3C)nc2c1C (centres unmarked) [Example 64]
0.794 | C=CCOc1c(C)cnc(C[S+]([O-])c2nc3c(C)c(C)c(C)cc3[nH]2)c1C (centres unmarked) [Example 14]
2.51 | COc1c(C)cnc(C[S+]([O-])c2nc3c(cc4c5c(cccc53)CC4)[nH]2)c1C (centres unmarked) [Example 98]
5.01 | C=CCOc1c(C)cnc(C[S+]([O-])c2nc3cc(C(=O)OC)c(C)cc3[nH]2)c1C (centres unmarked) [Example 55]
0.794 | COc1c(C)cnc(C[S+]([O-])c2nc3cc(CO)c(C)cc3[nH]2)c1C (centres unmarked) [Example 51]
0.631 | COc1c(C)cnc(C[S+]([O-])c2nc3c(C)c(C(C)=O)c(C)cc3[nH]2)c1C (centres unmarked) [Example 62]
0.794 | C=CCOc1c(C)cnc(C[S+]([O-])c2nc3c(C)c(C)c(C)c(C)c3[nH]2)c1C (centres unmarked) [Example 10]
0.631 | Cc1cnc(C[S+]([O-])c2nc3cc(C(C)C)ccc3[nH]2)c(C)c1OCC1CCCO1 (centres unmarked) [Example 111]
1.58 | C=CCOc1c(C)cnc(C[S+]([O-])c2nc3cc(CCC(C)=O)ccc3[nH]2)c1C (centres unmarked) [Example 113]
10 | C#CCOc1c(C)cnc(C[S+]([O-])c2nc3cc(OC)ccc3[nH]2)c1C (centres unmarked) [Example 34]

test system: gastric acid secretion in conscious dog; assay: Inhibiting effect in vivo on gastric acid secretion in conscious dog (gastric fistula, histamine-stimulated); details: intraduodenal (I.D.) dose 8 μmol/kg, free base in 0.5% Methocel
Method: II. Inhibiting effect in vivo on gastric acid secretion in conscious dog
Chronic gastric fistula dogs were used. These dogs have been surgically provided with a gastric cannula in the stomach and a duodenal fistula used for direct intraduodenal administration of test compounds. Following a 4 weeks' recovery period after surgery, tests were performed once a week on each dog. Food and water were withdrawn 18 hours before each test.
Gastric acid secretion was induced by continuous infusion of histamine at individual doses (100-300 nmol/kg,h), resulting in submaximal secretion of gastric acid. At least 2 hours after onset of stimulation, when the gastric acid secretion had reached a steady level, the test compounds in the form of free base suspended in 0.5% Methocel® (90 HG, 15.000, Dow Chem. Corp.), were given intraduodenally at doses from 1 to 8 μmol/kg. The gastric juice was collected by free flow from the gastric cannula in consecutive 30 minutes samples for 3 hours. The samples were titrated to pH 7.0 with 0.1 M NaOH using a Radiometer automatic titrator and the acid output was calculated.
The percent inhibition of acid secretion was calculated by comparing in each dog the acid output in the tests to the acid output in control tests when only the vehicle was given.

Structure (SMILES) | % INHIB (peak inhibitory effect on acid secretion) [%]
COc1c(C)cnc(CSc2nc3cc(SC)ccc3[nH]2)c1C [Example 109] | 60
COc1c(C)cnc(CSc2nc3cc4ccccc4cc3[nH]2)c1C [Example 84] | 85
